Drawing on patent US20240182480A1, “5-HT2A AND/OR 5-HT2C RECEPTOR AGONISTS” (priority 2021, published 2024), this text covers EC50 for 10 molecules.

Like-named read-outs stand apart in the source and are kept apart here. Bounds are passed on as bounds.

As usually defined, the EC50 is the concentration giving half of the maximal effect.

The target in test [1] is T1, 5-HT2A (Homo sapiens, UniProt P28223).
T1 construct: expressed in transfected cells; the paragraph before it names a CHO-K1-mt aequorin Gα16 cell line
T1 sequence (P28223 whole entry): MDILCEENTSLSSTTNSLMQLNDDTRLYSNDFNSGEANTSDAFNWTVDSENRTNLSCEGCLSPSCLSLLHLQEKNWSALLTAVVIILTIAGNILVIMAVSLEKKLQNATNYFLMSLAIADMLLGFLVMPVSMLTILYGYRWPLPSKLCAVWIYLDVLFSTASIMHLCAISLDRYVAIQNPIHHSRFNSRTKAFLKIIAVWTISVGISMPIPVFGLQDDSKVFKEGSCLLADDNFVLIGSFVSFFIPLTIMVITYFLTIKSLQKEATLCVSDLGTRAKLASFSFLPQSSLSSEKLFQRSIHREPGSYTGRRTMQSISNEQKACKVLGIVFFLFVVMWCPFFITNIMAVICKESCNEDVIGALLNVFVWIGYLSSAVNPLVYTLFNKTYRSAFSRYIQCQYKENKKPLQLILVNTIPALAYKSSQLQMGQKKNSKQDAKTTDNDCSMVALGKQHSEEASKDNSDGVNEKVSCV
The test can be described thus: cell-based. The following applies: FLIPR calcium assay, agonist mode.

For test [2], the target named is T2, 5-HT2B (Homo sapiens, UniProt P41595).
T2 construct: expressed in transfected cells; the paragraph before it names a CHO-K1-mt aequorin Gα16 cell line
T2 sequence (P41595 whole entry): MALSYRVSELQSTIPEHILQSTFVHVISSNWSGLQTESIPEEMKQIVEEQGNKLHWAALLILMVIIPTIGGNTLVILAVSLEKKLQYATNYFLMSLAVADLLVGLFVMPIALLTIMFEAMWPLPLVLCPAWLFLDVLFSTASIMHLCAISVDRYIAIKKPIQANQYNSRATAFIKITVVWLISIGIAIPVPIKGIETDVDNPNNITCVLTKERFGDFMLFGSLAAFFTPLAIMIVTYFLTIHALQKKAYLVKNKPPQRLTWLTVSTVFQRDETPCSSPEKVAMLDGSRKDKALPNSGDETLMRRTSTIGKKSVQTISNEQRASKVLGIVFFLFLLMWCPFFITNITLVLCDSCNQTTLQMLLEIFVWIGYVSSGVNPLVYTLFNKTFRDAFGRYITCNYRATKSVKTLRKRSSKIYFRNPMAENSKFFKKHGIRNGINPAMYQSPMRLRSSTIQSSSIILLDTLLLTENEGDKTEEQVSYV
Nature of the test: cell-based. Particulars: FLIPR calcium assay, agonist mode.

For test [3], the target named is T3, 5-HT2C (Homo sapiens, UniProt P28335).
T3 construct: expressed in transfected cells; the paragraph before it names a CHO-K1-mt aequorin Gα16 cell line
T3 sequence (P28335 33-458): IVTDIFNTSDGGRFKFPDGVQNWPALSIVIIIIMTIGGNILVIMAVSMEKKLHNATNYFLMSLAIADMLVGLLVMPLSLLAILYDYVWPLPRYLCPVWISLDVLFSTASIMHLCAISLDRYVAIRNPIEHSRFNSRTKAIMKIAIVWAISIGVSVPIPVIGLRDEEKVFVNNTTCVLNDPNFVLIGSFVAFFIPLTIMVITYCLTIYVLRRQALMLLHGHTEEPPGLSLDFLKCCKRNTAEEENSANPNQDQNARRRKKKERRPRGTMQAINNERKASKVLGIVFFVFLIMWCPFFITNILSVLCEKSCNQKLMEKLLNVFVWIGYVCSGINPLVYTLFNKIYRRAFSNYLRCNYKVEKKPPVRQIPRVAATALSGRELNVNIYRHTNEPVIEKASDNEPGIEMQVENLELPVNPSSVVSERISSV
The test can be described thus: 5-HT2C pharmacological screening by FLIPR assay in agonist mode. In kind it is cell-based.

Where [4] appears, read: 5-HT2A (EC50, % max activity), class symbols.
The mark [5] stands for this setting: 5-HT2A, (EC50, % max activity), approximate values.
Setting [6] is: 5-HT2B (EC50, % max activity), class symbols.
[7] abbreviates: 5-HT2B, (EC50, % max activity), approximate values.
Where [8] appears, read: FLIPR calcium assay, agonist mode, approximate values, read-out: 5-HT2C, (EC50, % max activity).
The mark [9] stands for this setting: FLIPR calcium assay, agonist mode, class symbols, read-out: 5-HT2C (EC50, % max activity).
[10] abbreviates: class symbols, read-out: 5-HT2A (EC50, % max activity).
The mark [11] stands for this setting: class symbols, read-out: 5-HT2B (EC50, % max activity).

`c1nc2c(nc1N1CCCOCC1)CCNCC2` [Example 1, 4-(6,7,8,9-tetrahydro-5H-pyrazino[2,3-d]azepin-2-yl)-1,4-oxazepane]: the EC50 in test [1] (setting [4]) was 1000 to 6000 nM; in test [1] (setting [5]) it was about 2000 nM; in test [2] (setting [6]), over 6000 nM; in test [2] (setting [7]), over 30000 nM; in test [3] (setting [8]) it was about 100 nM; in test [3] (setting [9]), under 200 nM.

With `FC1(F)CCN(c2cnc3c(n2)CCNCC3)CC1` [Example 2, 2-(4,4-difluoropiperidin-1-yl)-6,7,8,9-tetrahydro-5H-pyrazino[2,3-d]azepine], the EC50 in test [1] (setting [4]) was 200 to 1000 nM; in test [1] (setting [5]), about 900 nM; in test [2] (setting [6]) it was 1000 to 6000 nM; in test [2] (setting [7]), about 4000 nM; in test [3] (setting [8]), about 200 nM; in test [3] (setting [9]), under 200 nM.

For `FC1CCN(c2cnc3c(n2)CCNCC3)CC1` [Example 4, 2-(4-fluoropiperidin-1-yl)-6,7,8,9-tetrahydro-5H-pyrazino[2,3-d]azepine], the EC50 fell in the range of 1000 to 6000 nM in test [1] (setting [10]) and 200 to 1000 nM in test [2] (setting [11]).

`CN(C)c1cnc2c(n1)CCNCC2` [Example 15, N,N-dimethyl-6,7,8,9-tetrahydro-5H-pyrazino[2,3-d]azepin-2-amine]: the values for the EC50 in test [1] (setting [10]) and in test [2] (setting [11]) were over 6000 nM and 200 to 1000 nM, respectively.

For the molecule `c1nc2c(nc1N1CCCC1)CCNCC2` [Example 16, 2-(pyrrolidin-1-yl)-6,7,8,9-tetrahydrahydro-5H-pyrazino[2,3-d]azepine], the EC50 in test [1] (setting [10]) is over 6000 nM; in test [2] (setting [11]), 200 to 1000 nM.

For `FC1CN(c2cnc3c(n2)CCNCC3)C1` [Example 17, 2-(3-fluoroazetidin-1-yl)-6,7,8,9-tetrahydro-5H-pyrazino[2,3-d]azepine], the EC50 in test [1] (setting [10]) and in test [2] (setting [11]) was over 6000 nM in each case.

In the case of `c1ccc(COc2cnc3c(n2)CCNCC3)cc1` [Example 18, 2-(benzyloxy)-6,7,8,9-tetrahydro-5H-pyrazino[2,3-d]azepine], the EC50 is over 6000 nM in test [1] (setting [4]) and under 200 nM in test [2] (setting [6]).

Turning to `Nc1cnc2c(n1)CCNCC2` [Example 19, 6,7,8,9-tetrahydro-5H-pyrazino[2,3-d]azepin-2-amine], the EC50 in test [1] (setting [10]) and in test [2] (setting [11]) was over 6000 nM each time.

In the case of `Clc1cnc2c(n1)CCNCC2` [Example 20, 2-chloro-6,7,8,9-tetrahydro-5H-pyrazino[2,3-d]azepine], the EC50 in test [1] (setting [4]) and in test [2] (setting [6]) was over 6000 nM each time.

Take `CN1CCc2[nH]c3ncccc3c2CC1` [Example 22, 7-methyl-5,6,7,8,9,10-hexahydropyrido[3′,2′:4,5]pyrrolo[2,3-d]azepine]: the EC50 in test [1] (setting [4]) was over 6000 nM; in test [2] (setting [6]), over 6000 nM; in test [3] (5-HT2C (EC50, % max activity, FLIPR calcium assay, agonist mode), class symbols), over 6000 nM.
